Measurements from PubChem BioAssay (NCI).
Values joined by “and” are separate entries in the source; they are usually repeats but may differ in a detail not shown here. Equal values may be shown once.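 Cultured in 96-well plates, cells were exposed to test compound for 48 hours across five concentrations. GI50 is the concentration that inhibits growth by half. The concentration for full growth arrest is given as TGI.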

System: MDA-MB-468 breast
Test: inhibition of tumour cell growth, NCI panel, 48 h

In order of rising GI50:
1. CS(=O)(=O)CCNCc1ccc(-c2ccc3ncnc(Nc4ccc(OCc5ccccc5)c(Cl)c4)c3c2)o1  10.7 nM
2. CCCCCCCC(=O)SCC/C=C/[C@@H]1CC(=O)NCc2nc(co2)C2=N[C@@](C)(CS2)C(=O)N[C@@H](C(C)C)C(=O)O1  29.1 nM
3. COc1ccc(C(=O)c2cc3c(N)c(C(=O)Nc4cccc(Cl)c4C)sc3nc2C)cc1  70.7 nM
4. CC1=C[S+](c2ccccc2)c2cccc3cc4ccccc4c1c23 (centres undefined)  78.5 nM
5. COc1cccc(C2C3=C(COC3=O)Oc3cc4c(cc32)OCO4)c1 (centres undefined)  81.7 nM
6. CC(=O)[O][Hg][c]1ccccc1  154 nM
7. C#Cc1cccc(Nc2nc3ccc([N+](=O)[O-])cc3nc2Nc2cccc(C#C)c2)c1  174 nM
8. COc1cnc2c(c1)C(=O)c1c-2n(CCCN2CCCC2)c(=O)c2cc(F)ccc12  175 nM
9. COc1cc2nc3cc([N+](=O)[O-])ccc3c(NCCCNCC(C)(C)O)c2cc1OC  230 nM
10. O=C(OCc1ccc2c(Cl)cc(Cl)c(O)c2n1)c1cc2ccccc2[nH]1  238 nM
11. CCC1CCc2nc3sc(C(=O)Nc4ccccc4C)c(N)c3cc2C1 (centres undefined)  244 nM
12. Nc1c(C(=O)Nc2ccccc2F)sc2nc3c(cc12)C(=O)CCC3  247 nM
13. CN(CCCl)c1ccc(/C=C/C2=[N+](C)c3ccccc3C2(C)C)cc1  353 nM
14. COc1ccc(Cn2cc3c(c2-c2cc(OC)c(OC)c(OC)c2)CCc2cnoc2-3)cc1[N+](=O)[O-]  376 nM
15. CCCCn1sc(=O)n(Cc2ccc(CNC(=O)OCc3ccc4c(Br)cc(Br)c(O)c4n3)cc2)c1=O  388 nM
16. O=C(O)C1(Cc2cccc(Nc3nccs3)n2)CCC(Oc2cccc(Cl)c2F)CC1 (centres undefined)  526 nM
17. CCCCCc1ccc(S(=O)(=O)N(C(C)=O)c2cccc(-c3csc(N(CCN4CCN(C)CC4)C(C)=O)n3)c2)cc1  735 nM
18. CCN1C(=O)N(c2ccccc2)C2NN=c3s/c(=C4\C(=O)N(C(C)C)c5ccccc54)c(=O)n3C21 (centres undefined)  817 nM
19. CCCCCc1ccc(S(=O)(=O)Nc2cc(-c3csc(NC(=O)CN4CCN(C)CC4)n3)ccc2OC)cc1  917 nM
20. C=C1C(=O)O[C@H]2[C@H]1CC/C(COC(=O)c1ccc(C#N)cc1)=C\CC[C@@]1(C)O[C@@H]21  1030 nM
21. c1ccc(Cn2c(-c3ccc(OC[C@H](C4CCNCC4)n4c(-c5ccccc5)nc5ccccc54)cc3)nc3ccccc32)cc1  1120 nM
22. CNCCCNc1nc2ccccc2c2c(=O)c3cc(Cl)ccc3sc12  1260 nM
23. CC(=O)OCC1O[C@@H]([S-])C(OC(C)=O)[C@H](OC(C)=O)[C@@H]1OC(C)=O.[Au+].c1ccc(CN2[CH-]N(Cc3ccccc3)C(c3ccccc3)=C2c2ccccc2)cc1  1540 nM
24. C/C(=C\c1ccc(Cl)c(Cl)c1)[N+](=O)[O-]  1550 nM
25. O=C(CCCCCCSc1nc(-c2ccc(Cl)cc2)cc(-c2ccc(Cl)cc2)n1)NO  1620 nM
26. CCOC(=O)Nc1ccc(-c2nc(-c3cccc(OC)c3)c(-c3ccnc(Br)c3)[nH]2)cc1  1670 nM
27. COc1ccc(-c2nc3cc(Cl)c(Cl)cc3n2CC(=O)N=Nc2c(O)[nH]c3ccc(Cl)cc23)cc1  1700 nM
28. O=[N+]([O-])c1ccc2ncccc2c1Cl  1870 nM
29. CCOC(=O)c1cc2c(n1Cc1ccccc1)-c1oncc1CC2  2190 nM
30. O=C1CCc2c(sc3[nH]c(=S)n(Cc4ccccc4)c(=O)c23)C1  2950 nM
31. C/C(Cc1ccc(Cl)cc1)=C(/c1ccc(Cl)cc1)c1ccc(OCCN(C)C)cc1  2970 nM
32. CCCSC1=NC2C(N(CC)C(=O)N2CC)N1/N=C/C=C/c1ccccc1[N+](=O)[O-] (centres undefined)  3060 nM
33. C#CCOc1cccc(Nc2ncnc3ccc(NC(=O)CCl)cc23)c1  3160 nM
34. Cc1ccc(S(=O)(=O)Cc2nc(-c3ccc(C(=O)NCc4cccnc4)cc3)oc2C)cc1  4740 nM
35. COc1ccc(C(=O)COc2cccc(/C=C3\CSc4ccc(C)cc4C3=O)c2)cc1  4840 nM
36. CN(C[C@@H]1COCCO1)S(=O)(=O)Nc1ccc2ccc3ncc(-c4cnn(C)c4)cc3c(=O)c2c1  7130 nM
37. N[C@@H]1CCCN(c2c(/C=C3\SC(=O)NC3=O)cccc2-c2ccccc2)C1  9540 nM
38. COc1ccc(-c2cc(-c3cc(OC)c(OC)c(OC)c3)c(C#N)c(N3CCOCC3)n2)cc1O  13400 nM
39. Cc1nc2n(c(=O)c1CCN1CCC(c3noc4cc(F)ccc34)CC1)CCCC2  34000 nM

Going from `CC1=C[S+](c2ccccc2)c2cccc3cc4ccccc4c1c23` (centres undefined) to `COc1ccc(C(=O)COc2cccc(/C=C3\CSc4ccc(C)cc4C3=O)c2)cc1`, the TGI rises from 766 nM to 36900 nM (48-fold).

Going from `CCCCn1sc(=O)n(Cc2ccc(CNC(=O)OCc3ccc4c(Br)cc(Br)c(O)c4n3)cc2)c1=O` to `O=C(OCc1ccc2c(Cl)cc(Cl)c(O)c2n1)c1cc2ccccc2[nH]1`, the TGI falls from greater than 100000 nM to 626 nM.

Compared with `N[C@@H]1CCCN(c2c(/C=C3\SC(=O)NC3=O)cccc2-c2ccccc2)C1`, `O=C1CCc2c(sc3[nH]c(=S)n(Cc4ccccc4)c(=O)c23)C1` is 2.6-fold lower in TGI: 24500 nM for the first, 9310 nM for the second.

Going from `COc1ccc(-c2nc3cc(Cl)c(Cl)cc3n2CC(=O)N=Nc2c(O)[nH]c3ccc(Cl)cc23)cc1` to `COc1ccc(C(=O)c2cc3c(N)c(C(=O)Nc4cccc(Cl)c4C)sc3nc2C)cc1`, the TGI falls from 3400 nM to 1220 nM (2.8-fold).

`C/C(Cc1ccc(Cl)cc1)=C(/c1ccc(Cl)cc1)c1ccc(OCCN(C)C)cc1` and `O=C(CCCCCCSc1nc(-c2ccc(Cl)cc2)cc(-c2ccc(Cl)cc2)n1)NO` are within 1.5-fold of each other in TGI: 7760 nM for the first, 6380 nM for the second.

`CC(=O)OCC1O[C@@H]([S-])C(OC(C)=O)[C@H](OC(C)=O)[C@@H]1OC(C)=O.[Au+].c1ccc(CN2[CH-]N(Cc3ccccc3)C(c3ccccc3)=C2c2ccccc2)cc1` and `c1ccc(Cn2c(-c3ccc(OC[C@H](C4CCNCC4)n4c(-c5ccccc5)nc5ccccc54)cc3)nc3ccccc32)cc1` are within 1.5-fold of each other in TGI: 3260 nM for the first, 2460 nM for the second.

First: CNCCCNc1nc2ccccc2c2c(=O)c3cc(Cl)ccc3sc12
Second: CS(=O)(=O)CCNCc1ccc(-c2ccc3ncnc(Nc4ccc(OCc5ccccc5)c(Cl)c4)c3c2)o1
The TGI of the first is 14-fold higher: 2830 nM for the first, 196 nM for the second.

`O=C(O)C1(Cc2cccc(Nc3nccs3)n2)CCC(Oc2cccc(Cl)c2F)CC1` (centres undefined) and `C#CCOc1cccc(Nc2ncnc3ccc(NC(=O)CCl)cc23)c1` are within 1.5-fold of each other in TGI: 34600 nM for the first, 27200 nM for the second.

Compared with `Cc1nc2n(c(=O)c1CCN1CCC(c3noc4cc(F)ccc34)CC1)CCCC2`, `COc1cnc2c(c1)C(=O)c1c-2n(CCCN2CCCC2)c(=O)c2cc(F)ccc12` is lower in TGI: greater than 50000 nM for the first, 517 nM for the second.

Going from `Cc1ccc(S(=O)(=O)Cc2nc(-c3ccc(C(=O)NCc4cccnc4)cc3)oc2C)cc1` to `CCOC(=O)Nc1ccc(-c2nc(-c3cccc(OC)c3)c(-c3ccnc(Br)c3)[nH]2)cc1`, the TGI falls from greater than 100000 nM to 4910 nM.

First: O=[N+]([O-])c1ccc2ncccc2c1Cl
Second: C/C(=C\c1ccc(Cl)c(Cl)c1)[N+](=O)[O-]
The TGI of the first is 1.6-fold higher: 4810 nM for the first, 3020 nM for the second.

First: CC(=O)[O][Hg][c]1ccccc1
Second: CCOC(=O)c1cc2c(n1Cc1ccccc1)-c1oncc1CC2
The TGI of the first is 23-fold lower: 341 nM for the first, 7760 nM for the second.

First: COc1cc2nc3cc([N+](=O)[O-])ccc3c(NCCCNCC(C)(C)O)c2cc1OC
Second: COc1ccc(-c2cc(-c3cc(OC)c(OC)c(OC)c3)c(C#N)c(N3CCOCC3)n2)cc1O
The TGI of the first is lower: 570 nM for the first, greater than 100000 nM for the second.

`CCCCCc1ccc(S(=O)(=O)N(C(C)=O)c2cccc(-c3csc(N(CCN4CCN(C)CC4)C(C)=O)n3)c2)cc1` and `CCCCCc1ccc(S(=O)(=O)Nc2cc(-c3csc(NC(=O)CN4CCN(C)CC4)n3)ccc2OC)cc1` are within 1.5-fold of each other in TGI: 2710 nM for the first, 2110 nM for the second.

Compared with `CN(CCCl)c1ccc(/C=C/C2=[N+](C)c3ccccc3C2(C)C)cc1`, `CCN1C(=O)N(c2ccccc2)C2NN=c3s/c(=C4\C(=O)N(C(C)C)c5ccccc54)c(=O)n3C21` (centres undefined) is 2.5-fold higher in TGI: 1690 nM for the first, 4180 nM for the second.

Compared with `CCCCCCCC(=O)SCC/C=C/[C@@H]1CC(=O)NCc2nc(co2)C2=N[C@@](C)(CS2)C(=O)N[C@@H](C(C)C)C(=O)O1`, `CCCSC1=NC2C(N(CC)C(=O)N2CC)N1/N=C/C=C/c1ccccc1[N+](=O)[O-]` (centres undefined) is higher in TGI: 23500 nM for the first, greater than 100000 nM for the second.

`CCC1CCc2nc3sc(C(=O)Nc4ccccc4C)c(N)c3cc2C1` (centres undefined) and `Nc1c(C(=O)Nc2ccccc2F)sc2nc3c(cc12)C(=O)CCC3` are within 1.5-fold of each other in TGI: 742 nM for the first, 956 nM for the second.

Going from `C#Cc1cccc(Nc2nc3ccc([N+](=O)[O-])cc3nc2Nc2cccc(C#C)c2)c1` to `CN(C[C@@H]1COCCO1)S(=O)(=O)Nc1ccc2ccc3ncc(-c4cnn(C)c4)cc3c(=O)c2c1`, the TGI rises from 499 nM to greater than 100000 nM.

First: COc1ccc(Cn2cc3c(c2-c2cc(OC)c(OC)c(OC)c2)CCc2cnoc2-3)cc1[N+](=O)[O-]
Second: COc1cccc(C2C3=C(COC3=O)Oc3cc4c(cc32)OCO4)c1 (centres undefined)
The TGI of the first is lower: 4220 nM for the first, greater than 100000 nM for the second.

Molecule `C=C1C(=O)O[C@H]2[C@H]1CC/C(COC(=O)c1ccc(C#N)cc1)=C\CC[C@@]1(C)O[C@@H]21` has a TGI of 3130 nM.

For `COc1ccccc1S(=O)(=O)Nc1ccc2c(c1)CN(C)C(=O)N2`, the GI50 was 2400 nM and 1440 nM.
In the case of `O=C(O)c1ccc2c(c1)nc(Nc1cccc(Cl)c1)c1ccncc12`, the GI50 is reported as 1050 nM and 1670 nM.
With `Cc1c(NC(=O)OC[C@@H]2COCCN2)cn2ncnc(Nc3ccc4c(cnn4Cc4cccc(F)c4)c3)c12` the GI50 was 120 nM and 45.4 nM.

`COc1ccccc1S(=O)(=O)Nc1ccc2c(c1)CN(C)C(=O)N2` was tested, and the TGI was > 56100 nM and 50300 nM.
With `O=C(O)c1ccc2c(c1)nc(Nc1cccc(Cl)c1)c1ccncc12` the TGI was 4840 nM and 8970 nM.
For `Cc1c(NC(=O)OC[C@@H]2COCCN2)cn2ncnc(Nc3ccc4c(cnn4Cc4cccc(F)c4)c3)c12`, the TGI was 1120 nM and 329 nM.
